The results in this text go back to patent US8952054B2, “Small molecule inhibitors of MUC1 and methods of identifying the same” (Dana-Farber Cancer Institute, Inc., priority 2010, dated 2015).

Structures are written as SMILES.

The test system of data set [1] is MCF-7 cells. Nature of the data set: MCF-7 cell number (MTS), caspase-9 cleavage, PI uptake and colony formation. Format: cell-based, human. The conditions noted are these: for colony formation: 2 weeks. On the procedure:
FIGS. 14A-E—Apigenin suppresses MUC1 expression in MCF-7 cells. (FIG. 14A) MCF-7 cells were treated with DMSO vehicle, 75 μM apigenin or 75 μM baicalein for 3 d. Total RNA was assayed for MUC1 mRNA levels by qRTPCR. The results (mean+SD of 3 determinations) are expressed as relative MUC1 mRNA levels as compared to that obtained in cells treated with DMSO. (FIGS. 14B-C) MCF-7 cells were treated with the indicated concentrations of apigenin and baicalein for 3 days. Nuclear (FIG. 14B) and whole cell lysates (FIG. 14C) were immunoblotted with the indicated antibodies. D. Lysates from MCF-7 cells were infected to stably express a control lentivirus and one with a MUC1 shRNA were immunoblotted with the indicated antibodies. (FIG. 14E) The indicated MCF-7 cells were treated with […] apigenin for 3 d. Viable cell number was determined by the MTS assay. The results (mean+SD of 3 determinations) are expressed as percentage of control growth in the presence of DMSO.
FIGS. 15A-C—Apigenin inhibits MCF-7 clonogenic survival. (FIG. 15A) MCF-7 cells were treated with DMSO, 75 μM apigenin or 75 μM baicalein for 3 d. Lysates were immunoblotted with the indicated antibodies. (FIG. 15B) MCF-7 cells were treated with DMSO, 75 μM apigenin or 75 μM baicalein for 3 d, stained with propidium iodide and analyzed by flow cytometry. […] (FIG. 15C) MCF-7 cells were plated at a density of 1000 cells/6 cm dish. At 24 h after seeding, DMSO or apigenin at concentrations of 25, 50 and 75 μM was added to the medium. After 2 weeks, colonies were stained with crystal violet. The results (mean+SD of 3 determinations) are expressed as percentage of control colony formation in the presence of DMSO.

Data set [2] relates to MUC1-negative 293 cells. Nature of the data set: Viable cell number by trypan blue exclusion, 293 cells. Format: cell-based, human. Conditions: 5 μM. On the procedure: (§1) FIGS. 4A-E. Selectivity of MUC1/CQC for MUC1 expressing breast cancer cells. (FIG. 4A) ZR-75-1 cells were stably infected with an empty lentivirus (vector) or one expressing a MUC1 siRNA. Lysates for the infected cells were immunoblotted with the indicated antibodies. (FIG. 4B) ZR-75-1/vector cells were left untreated (diamonds), and ZR-75-1/vector (squares) and ZR-75-1/MUC1 siRNA (triangles) cells were treated with 5 μM MUC1/CQC peptide for the indicated times. Viable cell number was determined by trypan blue exclusion. (FIG. 4C) 293 cells were left untreated (diamonds), and treated with 5 μM MUC1/CQC (squares) or MUC1/AQA (triangles) for the indicated times. Viable cell number was determined by trypan blue exclusion. (FIG. 4D) MCF-10A cells were left untreated (left panel), and treated with 5 μM MUC1/CQC (middle panel) or MUC1/AQA (right panel). At 3 d, cells were analyzed for cell cycle distribution. […] Viable cell number was determined by trypan blue exclusion.
(§2) Human breast cancer ZR-75-1, ZR-75-1/vector, ZR-75-1/MUC1siRNA (Ren et al., 2004) cell lines were grown in RPMI1640 medium supplemented with 10% heat-inactivated fetal bovine serum (HI-FBS), 100 U/ml penicillin, and 100 μg/ml streptomycin (Invitrogen) in a humidified incubator at 37° C. and 5% CO2. […] Viability was determined by trypan blue exclusion.

Data set [3] relates to ZR-75-1/MUC1siRNA cells. Nature of the data set: Viable cell number by trypan blue exclusion, ZR-75-1/MUC1siRNA. Format: cell-based, human. The conditions noted are these: 5 μM, versus ZR-75-1/vector. On the procedure: as §1, §2
The nature of data set [4]: Body weight of nude mice given peptide. Format: in vivo, nude (nu/nu) mice. On the procedure:
To determine if administration of the MUC1/CQC peptide is associated with effects on body weight, five female nude (nu/nu) mice were injected intraperitoneally (IP) once each day at a dose of 50 mg/kg. […] To assess anti-tumor activity, ZR-75-1 cells (1×10^7) were implanted subcutaneously into the flanks of nude mice. After 12 d, mice bearing tumors of approximately 150 mm^3 were treated with the MUC1/CQC peptide at doses of 10 and 50 mg/kg/d. As controls, mice were treated with vehicle alone or with the MUC1/AQA peptide. Administration of the MUC1/CQC peptide at 10 mg/kg/d×21 d slowed growth as compared to that obtained with the MUC1/AQA peptide given at 50 mg/kg/d (FIG. 5A). […] Consequently, treatment was stopped and the mice were monitored for regrowth. […] To assess in part the basis for the activity, tumors harvested from control and treated mice were examined by histopathology. […] Sections of the tumors were also stained with an antibody against MUC1.

For the compound `O=c1cc(-c2ccc(O)cc2)oc2cc(O)cc(O)c12` [Apigenin, 4′,5,7-trihydroxyflavone], the colony formation entry is “substantial decrease in colonies” in data set [1] (MCF-7, 25 μM); “complete loss of survival” in data set [1] (MCF-7, higher concentrations (50 and 75 μM)). In addition, the caspase-9 cleavage entry in data set [1] (MCF-7, 75 μM, 3 d) is reported as “cleavage of caspase-9”. Also, the “cell membrane integrity (PI)” value in data set [1] (MCF-7, 75 μM, 3 d) is reported as “loss of cell membrane integrity”. In data set [1] (MCF-7, 75 µM, 3 d, MTS), the “effect of silencing MUC1 (shRNA) on apigenin-induced decreases in cell number” value is recorded as “partially decreased sensitivity”.
On to `CC[C@H](C)[C@H](NC(=O)[C@H](CC(=O)O)NC(=O)[C@H](CC(C)C)NC(=O)[C@H](CCC(N)=O)NC(=O)CNC(=O)[C@H](Cc1ccc(O)cc1)NC(=O)[C@H](CC(N)=O)NC(=O)[C@H](CCCCN)NC(=O)[C@H](CCCNC(=N)N)NC(=O)[C@H](CCCNC(=N)N)NC(=O)[C@H](CS)NC(=O)[C@H](CCC(N)=O)NC(=O)[C@H](CS)NC(=O)[C@@H](CCCNC(=N)N)NC(=O)[C@@H](CCCNC(=N)N)NC(=O)[C@@H](CCCNC(=N)N)NC(=O)[C@@H](CCCNC(=N)N)NC(=O)[C@@H](CCCNC(=N)N)NC(=O)[C@@H](CCCNC(=N)N)NC(=O)[C@@H](CCCNC(=N)N)NC(=O)[C@@H](CCCNC(=N)N)NC(=O)[C@H](N)CCCNC(=N)N)C(=O)N[C@@H](Cc1ccccc1)C(=O)N1CCC[C@H]1C(=O)O` [MUC1/CQC], for which the “growth / viable cell number” value in data set [2] is recorded as “no apparent effect”; in data set [3], “substantially less effect”. The body weight result in data set [4] (50 mg/kg IP once each day over 11 d) is listed as “no apparent effect”; in data set [4] (next 28 d after stopping administration, data not shown), “no subsequent effect”.
